Reference: patent US20250026788A1, “PEPTIDES FOR THE TREATMENT OF CHRONICALLY ACTIVE AUTOIMMUNE INFLAMMATION” (advanceCOR GmbH, priority 2021, published 2025)
Ends that are not written are not given here.

Experiments:
[1] = tested on: FIA-CIA (bCII- and hFib-immunized mice which develop RA-like arthritis); conditions: for overview of the paws: soft tissue enhancement and lymphocyte infiltration (HE sections): right hind paws; for arthritis score: score 0-16 per mouse
[2] = tested on: anti-bCII or anti-hFib antibody titers; experiment: Measurement of mouse antibodies by ELISA in sera of treated FIA-CIA mice; assay type: in vivo; conditions: sera taken on days 35 and 84, 1 mg/kg i.v. on days 14, 35 and 56
Experimental: Serum was collected on days 0, 14, 35 and 56 of the experiment via bleeding of the tail vein. Treatment with peptides 90091, 90578 (at a concentration of 1 mg/kg body weight) or 0.9% NaCl was applied intravenously on day 14, 35 and 56. Mice were randomly distributed to the three treatment groups. Treatment compounds were numbered 1, 2 and 3. To minimize confounders, each of the three mice per cage received a different treatment. All clinical and histological investigators were blinded to the treatment until data analysis was finished. For comparability between the therapy groups, all mice, including the CFA control mice, received a daily dose of 1 mg/kg Metacam® (meloxicam) from day 14 after the first immunization on until the end of the experiment. Mice were killed on day 84 of the experiments via intracardiac punction and blood withdrawal under ketamine/xylazine anaesthesia.
ELISA plates were coated with 100 μl per well of either 1 μg/ml bCII (Chondrex, Inc.) or 1 μg/ml hFib (Millipore/Calbiochem) or 1 μg/ml citrullinated hFib (Cayman) or CCP peptide at a concentration of 10 μg/ml in coating solution for 1 h. The CCP peptide we used for the selected CCP assay had the following sequence: HQCHQEST(cit)GRSRGRCGRSGS (SEQ ID NO: 2), with disulphide bonds spanning C3-C16.
All subsequent procedures were performed at room temperature (RT) and incubations were done on a microtiter plate shaker. […] After washing, the POD was detected by incubation with 100 μl/well of TMB substrate (Thermo Scientific, #34029) until a maximal optical density (OD) of about 1 to 2 was reached. Finally, the colorimetric reaction was stopped with 100 μl/well stopping solution (1M H2SO4) and the OD determined at a wavelength of 450 nm with a reference wavelength of 595 nm with the Tecan Infinite F 200 plate reader.
For assessment of antibodies, various antigens were coated on ELISA plates, and the sera of the mice were added. Binding of antibodies to the antigens was then measured by adding anti-mouse antibodies labelled with POD.

[3] = 1 mg/kg i.v. on days 14, 35 and 56
[4] = 1 mg/kg i.v. on days 14, 35 and 56, vs NaCl

Compound	ankle and tarsal joint histology (lymphocyte infiltrates, cartilage, pannus) [1, 3]	paw swelling of tarsal joints ([1]; 1 mg/kg i.v. on days 14, 35 and 56, caliper, vs NaCl)	average histology score ([1]; 1 mg/kg i.v. on days 14, 35 and 56, right hind paw HE sections at day 84, score max 15, N=8)	overview of the paws: soft tissue enhancement and lymphocyte infiltration (HE sections) [1, 3]	arthritis score [1, 4]	antibody levels (anti-bCII, anti-hFib titers) ([2]; 1 mg/kg)	antibody levels (anti-bCII, anti-hFib titers) ([2]; listed as Peptide 905778, 1 mg/kg)	adverse effects ([1]; mouse, in vivo, 1 mg/kg)	survival probability (Kaplan-Meier, log-rank) ([1]; 1 mg/kg i.v. on days 14, 35 and 56, mice killed when arthritis too severe)	antibody levels (anti-bCII, anti-hFib titers) [2]
peptide 90578: GEPGIAGFKGEQGPK (SEQ ID NO: 1, bCII 256-270) with a D-fructosyl residue on the lysine at position 264 (position 9) (GEPGIAGFK(D‑fructosyl)GEQGPK; listed as Bos taurus)	the cartilage was intact and there were only a few lymphocyte infiltrates in the subchondral bone	significantly lower swelling on days 49 and 56	3.9	less tissue enhancement and lymphocyte infiltration	tended to be less severe	this effect could not be found in the antibody levels	not Affected by Treatment	–	–	–
Cc1cnc(NC(=O)C2=C(O)c3ccccc3S(=O)(=O)N2C)s1 [meloxicam, reference compound]	–	–	–	–	–	–	–	did not develop any adverse effects	–	–
peptide 90091: non-fructosylated derivative of peptide 90578, amino sequence GEPGIAGFKGEQGPK (SEQ ID No: 1) (CARBOHYD (9)..(9); listed as Bos taurus) [reference compound]	less lymphocyte infiltrates, but also pannus formation and cartilage erosion	–	–	severely enhanced	seemed to enhance arthritis, but not significantly	–	–	–	did not reveal a significant difference between groups	not Affected by Treatment
